≈ marks a conversion by molar mass, not a printed value. Where two headings read alike, the source gives them in different places.
Tests used:
[1] = for concentration of methionine remaining in the supernatant (mother liquor): buffer, 18 h
Experimental: To the cell free broth containing the solubilized L-methionine, sulfuric acid (96% w/w) was added and its pH lowered to […], the isoelectric point of L-methionine. […] The slurry was then stored overnight at 4° C. to allow for precipitation of the crystals. The slurry was then centrifuged to collect the methionine crystals.
At pH of 1.68, cells from the slurried fermenter broth were separated first by centrifugation followed by filtration through a 0.45 micron filter. The pH of the filtrate was then raised to 5.75, the isoelectric point of methionine by addition of 50% NaOH, resulting in formation of L-methionine crystals. The slurry was placed in a refrigerator at 4° C. for 18 hours to allow for additional crystallization of methionine. The crystals were then removed by centrifugation and filtration and further dried on a lyophilizer. The dried crystals were harvested from the lyophilizer. […] Crystals were collected by centrifugation at 4° C. by using a pre-chilled centrifuge.
For optimal recovery of methionine, solids from the acidified slurry above were removed by centrifugation and filtration and the pH of the recovered filtrate was raised to 5.6 using NaOH. […] This solution was placed again in the refrigerator at 4° C. for 18 hours to allow for formation of additional methionine crystals. Crystals formed after 18 hours at 4° C. were filtered and dried in a lyophilizer.

physchem = conditions: thermodynamic from solid
Experimental: (§1) The pH of the slurry was measured to be 5.54. A well-mixed sample of this slurry was drawn, and solids removed from the sample by centrifugation followed by filtration.
(§2) From a well-mixed sample of this slurry, solids were removed as before by centrifugation and filtration. […] At this point, the whole cells were separated from the methionine and fermentation solubles by centrifugation.
(§3) Methionine was added to the fermentation broth at a concentration of 56 g/L. In addition to soluble methionine, the slurry had insoluble methionine, microbial cells and components of fermentation media. 50% NaOH was added to the slurry at a concentration equal to 0.5 eq. weight of methionine. […] A sample of the slurry was removed and filtered as previously described.
(§4) Methionine was added to fermentation broth at a concentration of 77 g/L. The slurry was then heated to 70° C. without pH adjustment. This slurry was then filtered through a 0.45 micron filter in a heated filtration unit to remove the whole cells and other insoluble fermentation broth components. The filtrate was collected and analyzed for methionine.
(§5) Concentrated sulfuric acid (H2SO4, 96% w/w) was added in a concentration equal to 1 equivalent weight of methionine to the slurry, lowering the pH of the slurry to 2.49. Methionine concentration was measured from a sample after centrifugation and filtration as previously described.
(§6) H2SO4 (96% w/w) at a concentration of 1 equivalent weight of methionine was added to this slurry, decreasing the pH of the broth to 2.39.

[2] = soluble methionine concentration in the filtrate of L-methionine-supplemented fermentation broth slurry, by HPLC after centrifugation and filtration
Experimental: as §1, §2, §3, §4, §5, §6

[3] = 25° C., Merck Index 12th Edition 1996; cited from earlier work

SMILES	concentration of methionine remaining in the supernatant (mother liquor) ([1]; pH 5.6)	concentration of methionine remaining in the supernatant (mother liquor) ([1]; pH 5.75)	concentration of methionine remaining in the supernatant ([1]; pH 5.95)	solubility (physchem; 22 °C, pH 5.54, plasma or biological fluid)	solubility (physchem; pH 2.39, plasma or biological fluid)	solubility (physchem; pH 2.49, plasma or biological fluid)	solubility (physchem; pH 8.92, plasma or biological fluid)	solubility (physchem; pH 9.36, plasma or biological fluid)	solubility of methionine in fermentation broth ([2]; 22° C., no pH adjustment)	solubility of methionine in the solution versus pH 9.36 ([2]; NaOH 2 equivalent weight, pH 10.22)	solubility of L-methionine versus lower NaOH levels ([2]; NaOH 2.5 equivalent weight, pH 12.53)	concentration of methionine in the filtrate ([2]; slurry with 56 g/L methionine, NaOH 1 eq weight, pH 9.38)	additional methionine solubilized ([2]; slurry with 56 g/L methionine, NaOH 1.5, 2 and 2.5 eq wt, pH 9.82, 10.47 and 12.23)	concentration of methionine in the filtrate ([2]; slurry with 77 g/L methionine, heated to 70° C., no pH adjustment, 0.45 micron filter)	water solubility [3]
CSCC[C@H](N)C(=O)O [L-methionine]	39.5 g/L	47.2 g/L	33 g/L	38 mg/mL (≈ 255 mM)	55 mg/mL (≈ 369 mM)	75 mg/mL (≈ 503 mM)	58 mg/mL (≈ 389 mM)	78 mg/mL (≈ 523 mM)	38 g/L	unchanged	did not further increase	56 g/L	No additional methionine was solubilized	74.6 g/L	
CSCCC(N)C(=O)O (racemic) [DL-methionine]															33.81 g/L (≈ 227 mM)

From US8338141B2, “Methionine recovery processes” (Novus International, Inc., priority 2003, dated 2012)
